Reference: patent US4753928A, “Process for obtaining sexual products from mammals suitable for natural or artificial fertilization” (INNOFINANCE Altalanos Innovacios Pengintezet, priority 1985, dated 1988)
Where “and” joins values, the source holds several entries; their conditions need not be identical. Equal entries are not always repeated. Where a SMILES comes first, the peptide text is derived from it. [ ]: non-standard residue; d: D form. pGlu = O=C1CC[C@@H](C(=O)O)N1

Experiments:
[1] = test system: female lambs; experiment: Inducing super-ovulation in infant sheep; type: in vivo; settings: 10 μg twice daily 5 days i.m., 70 μg on 6th day; 50-day old lambs
Protocol: 10 50-day old female lambs were administered each intramuscularly twice daily for 5 days 10 μg doses each of D-Phe^6, Gln^8, desGly^10 -GnRH ethylamide. […] Evaluation of treated and untreated control animals was carried out with the aid of laparoscopy. The results were similar to those outlined in Examples 1 to 4.

[2] = test system: female wild cats; experiment: Cancelling seasonal unoestrus in adult wild cat; type: in vivo, Felis silvestris; settings: after 4 days; i.m. 100 μg then 500 μg two hours later, repeated after 48 hours
Protocol: 2 female wild cats from Zoo, with an average weight of 6 kg and having under normal conditions a cycle between February and March, were treated with D-Phe^6, Gln^8, desGly^10 -GnRH ethyl-amide. Before treatments began, abdominal cavity was opened under narcosis in order to see the condition of both ovaries. After sewing up the abdomen, animals were treated every second day, four times in total through intramuscular injection of the active ingredient diluted in normal saline solution. A two-hour interal was kept between the first and second injection; the first dose was 100 μg, the second one 500 μg. This was followed after 48 hours by the third dose of 100 μg, then two hours later by the fourth dose of 500 μg. On the 0., 2., 4. and 8th day of the treatment abdomen was opened under narcosis and changes in condition of the ovaries were visually evaluated. After treatment both ovaries were removed, fixed and their hystological evaluation was carried out.
On the 0. day of the treatment on left side ovary of both animals 3-4 supposed secondary follicles and 1 degenerated old corpus luteum, while on the right side ovary 5-6 supposed secondary follicles could be seen. […]

[3] = test system: infant calves; experiment: Inducing super-ovulation in infant cattle; type: in vivo
Protocol: 8 65-old day infant calves were treated for 8 days, three times daily, with 2 μg of D-Phe^6, Gln^8, desGly^10 -GnRH ethylamide each. After a day of rest, on the 10th day 100 μg active ingredient was administered each intramuscularly. Following the last injection, ovaries from both sides were removed; generally 5-11 developed Graf-follicles were registered in each ovary. 50% of the follicles were already past the stage when tight to the touch, i.e. they were follicles just prior to ovulation.

[4] = test system: male orang-utan; experiment: Treating aspermia caused by non-natural keeping in orang-utan; type: in vivo; settings: 47th day
Excerpt: A 18-year old, male orang-utan of a weight of ca. […] and belonging to Zoo came into captivity in its infancy. Till the treatment it had three owners. […] It has been living in its present location for the past 11 years, it had neither a companion of his own kind nor a mate. […] The Zoo has been contacted that in case the animal is of Bornean Sub-species and fertile, it would be purchased. […] A factor questioning fertility in the case-history was the absence of aggressiveness typical of the male primates and the ceasing of regular masturbation during hospitalization 5-6 years before. Sperm sample was taken from the animal under narcosis, using electrical means. In the ejaculate secretion of the side gonads was exclusively found, in three parts 1--1 droplet, altogether a quantity of 0.1 ml.
Thereafter the animal was treated twice weekly with a dose of 100 μg D-Phe^6, Gln^8, DesGly^10 -GnRH ethylamide, i.e. similarly to the method used in Example 11. During treatment movement of the animal became more live and active. This, however, could not be attributed to the growth of libido, since it could have been caused by the fear from firing airgun injector. Treatment was finished on the 47th day following the first shot and ejaculate was taken twice under renewed narcosis and one hour interval; in this way altogether 3.2 ml of sperms were obtained. Density of sperm was 3, motility 35%. Amount of degenerated sperms reached 20%, practically made up of entirely young development forms (neck and middle part plasma droplets).

[5] = test system: intact ovaries in organ culture; experiment: Production of ova in cattle in vitro from ovary organ culture; type: cell-based; settings: 10^-9 -10^-8 g/ml; spontaneous ovulations and punctured ova
Protocol: Cattle in slaughter-house was stunned and bled, after which intact ovaries were removed within 30-55 minutes. Then in laboratory conditions they were placed in […]. To this culture liquid D-Phe^6, Gln^8, desGly^10 -GnRH ethyl-amide was given in a concentration of 10^-9 -10^-8 g/ml. Ovary stock took 16 to 43 hours to ovulate in organ culture. Out of the spontaneous ovulations of in vitro ovaries and from ova obtained with puncturing 85% were capable to continue meiosis (reductive cell division) and to be successfully fertilized in vitro by tractable sperms of cattle.

[6] = test system: subordinate male chimpanzees; experiment: Treating physiological oligospermia of chimpanzee; type: in vivo
Protocol: In our case, apart from sperm obtained from the dominant males, that was stored in sperm bank, we had to have expressly, for the purpose of insemination, sperm from the 4 subordinate males (all sexually mature). Before the treatment began, all animals were ejaculated under narcosis through electric shock method. Density and motility of the ejaculate was evaluated under microscope, then it was put under deep freeze probe (-196° C.). […] Thereafter male chimpanzees weighing 60 to 90 kilograms were administered intramuscularly 100 μg of D-Phe^6, Gln^8, desGly^10 -GnRH ethylamide diluted in 1 ml of normal saline solution using compressed air injection technique. […] Qualitative and quantitative characteristics of the ejaculates were similar to those obtained from the dominant male and to values published in technical literature.
After diluting the ejaculate in a 1:1 ratio, deep-freeze test was positive and the 60% motility decreased to only 45%. Sperms of this quality either fresh or in deep freeze are entirely suitable for the purposes of insemination.

[7] = test system: Bengalian tiger; experiment: Stimulating normospermia to hyperspermia in Bengalian tiger; type: in vivo
Protocol: A 8-year old Bengalian tiger of a weight of 200 kg belonging to Zoo copulated regularly, its mate becoming pregnant regularly for years. With this knowledge, under narcosis and in the mating season sperm sample was taken electrically and it was established that the sample density reached 3, motility was 30% and quantity of ejaculate amounted to 0.2 ml. […] Deep freezing of such minute quantity of ejaculate, however, is for technical reasons not possible. In order to protect the animal and to avoid liver damage, narcosis can be repeated every four days at the most and kept on for 4-5 hours. Collecting of sperms this way is unaccomplishable. In our process the male was separated from the female and was treated daily for 12 days with 10 μg each of D-Phe^6, Gln^8, DesGly^10 -GnRH ethyl-amide which was diluted in 1 ml of normal saline solution and administered intramuscularly, using compressed air injection technique. On the 12th day, through electrical means the animal was ejaculated under narcosis twice with an hour time interval; in this way 1 ml and 0.8 ml of sperms were obtained. The two samples were combined and examined; a density of 4 was established, motility being 70%. Sperm samples were deep frozen and 21 doses suitable for artificial fertilization were prepared.

[8] = test system: ovary of domestic cat kittens; experiment: Stimulating function of ovary in domestic cat (D-Phe6,Trp7,Leu8-GnRH); type: in vivo; settings: 100 μg i.m. every second day, three times; 45 days old kittens
Protocol: 5 kittens each weighing 0.3 kg and being 45 days old were treated with D-Phe^6, Trp^7, Leu^8 -GnRH analogue in such a way that prior to treatments the left side ovary was removed under narcosis. Then the […] were treated every second day, three times in all with doses of 100 μg each of the active ingredient diluted in normal saline solution administered intramuscularly. After treatment the remaining right side ovaries were removed, examined visually, then, after fixing, hystological examination was carried out.
Ovaries removed prior to treatment were quite homogeneous, butter-yellow in colour, growing follicle could not be detected in them either visually or hystologically. Following treatment 7-8 corpora haemorrhagica and several (not countable) growing follicles were found.

[9] = test system: Siberian tiger male; experiment: Treating Siberian tiger infertile owing to degenerated spermatogeny; type: in vivo
Excerpt: A 8-year old Siberian tiger male of 120 kg and belonging to Zoo has lived with its mate for three years. Regular copulations took place on oestrus of the female, but no offspring was produced in any year. The possiblity that the female was at fault had to be excluded because previously she had pregnancy from an other male and the young ones born were reared as well. From the male in question through electrical means ejaculate was obtained under narcosis and it was established that it was very thin, 4-5 degenerate, vibrating sperms could be seen in each field of vision. Forms of degeneration were characteristic of the younger phases of spermiogenesis. Thereafter the animal was treated oncy weekly intramuscularly with a 100 μg dose of D-Phe^6, Trp^7, Leu^8 -GnRH diluted in normal saline solution of 1 ml, using the compressed air injection technique. The male was kept with its mate and they copulated regularly during the treatments. […] Calculating from the time of birth, fertile copulation ensued 40-50 days following the first treatment.

CCNC(=O)[C@@H]1CCCN1C(=O)[C@H](CCC(N)=O)NC(=O)[C@H](CC(C)C)NC(=O)[C@@H](Cc1ccccc1)NC(=O)[C@H](Cc1ccc(O)cc1)NC(=O)[C@H](CO)NC(=O)[C@H](Cc1c[nH]c2ccccc12)NC(=O)[C@H](Cc1c[nH]cn1)NC(=O)[C@@H]1CCC(=O)N1 [D-Phe^6, Gln^8, desGly^10 -GnRH ethylamide] ([pGlu]HWSY[dF]LQP-NHEt)
ovulations in each animal [1]: 3-9
development of secondary follicles [2]: all secondary follicles turned into Graf-follicles ovulated
developed Graf-follicles in each ovary ([3]; 2 μg three times daily 8 days, 100 μg i.m. on 10th day, 65-day old calves): 5-11
follicles just prior to ovulation ([3]; same treatment): 50%
degenerated sperms [4]: 20%
density of sperm [4]: 3
sperm motility [4]: 35%
sperm volume obtained altogether ([4]; 100 μg twice weekly, two ejaculations): 3.2 mL
ova capable to continue meiosis and to be fertilized in vitro [5]: 85%
motility of ejaculate after deep freeze test ([6]; 4 weeks after first treatment): less than 10%
young sperm formations in ejaculate ([6]; 4 weeks after first treatment, 100 μg i.m.): 40-60%
defective sperms ([6]; 60 days after first treatment): below 30%
sperm motility ([6]; 60 days after first treatment): exceeded 60%
motility after deep-freeze test ([6]; 60 days, ejaculate diluted 1:1): 45%
density of combined sample ([7]; 12th day): 4
sperm motility ([7]; 12th day, combined sample): 70%
sperm volume obtained per ejaculation ([7]; 12th day, 10 μg daily i.m. for 12 days, two ejaculations one hour apart, 0.2 ml before treatment, Gln^8, DesGly^10 -GnRH ethyl-amide): 1 mL and 0.8 mL
motility of remelting sperms ([7]; after deep freezing): 60%
doses suitable for artificial fertilization prepared ([7]; deep frozen samples): 21

CC(C)C[C@H](NC(=O)[C@H](Cc1c[nH]c2ccccc12)NC(=O)[C@@H](Cc1ccccc1)NC(=O)[C@H](Cc1ccc(O)cc1)NC(=O)[C@H](CO)NC(=O)[C@H](Cc1c[nH]c2ccccc12)NC(=O)[C@H](Cc1c[nH]cn1)NC(=O)[C@@H]1CCC(=O)N1)C(=O)N1CCC[C@H]1C(=O)NCC(N)=O [D-Phe^6, Trp^7, Leu^8 -GnRH] ([pGlu]HWSY[dF]WLPG-NH2)
corpora haemorrhagica on remaining ovary [8]: 7-8
pregnancy of mate / offspring ([9]; 100 μg once weekly i.m.): The female became pregnant, producing three healthy offsprings
time of fertile copulation following the first treatment ([9]; calculated from time of birth): 40 to 50 days
